According to patent US20230136600A1, “Method and device for screening antigen epitope polypeptide” (priority 2020, published 2023):

System: Balb/c mice
Assay: Polypeptide chip-based vaccine immunogenicity scoring system
Type: in vivo
Parameters: key to A2: whether the 95 percentile of the last sampling is increased compared with the end point: Y = rise; N = no rise
Conditions: for A: 95 percentile grouping number score / B: Mouse performance score: total score = 5; for C1: #A timing-sequence response peptide fragment set / C2: #B vaccine specificity peptide fragment set / C3: Intersection of A and B / C4: Percentage of the intersection in set B / C: Timing-sequence response and specificity score: value of the whole mix
[1] = Embodiment III, polypeptide-KLH
[2] = Embodiment III, polypeptide-KLH, Mix1-10
[3] = Embodiment III, polypeptide-KLH, A*3 + B*2 + C*1
[4] = adjuvant AddaVax, 7 peptides co-immunized in mice
[5] = adjuvant Adju-Phos, 7 peptides co-immunized in mice
[6] = adjuvant Alhydrogel, 7 peptides co-immunized in mice
[7] = adjuvant Imjet Alumn, 7 peptides co-immunized in mice
[8] = adjuvant MA103A, 7 peptides co-immunized in mice
[9] = adjuvant MA103B, 7 peptides co-immunized in mice

QELGKYEQY (SARS-CoV-2) [SEQ ID NO:38]
B1: D 0-D 14 95 percentile rise in the number of mice [1]: 3 | B2: D 0-D 21 95 percentile rise in the number of mice [1]: 3 | B3: D 14-D 21 95 percentile rise in the number of mice [1]: 2 | B4: D 21-D 28 95 percentile rise in the number of mice [1]: 1 | A1: difference between a highest median and a D 0 median (95 percentile) [2]: 0.10 | A2: whether the 95 percentile of the last sampling is increased compared with the end point [2]: Y | Total single peptide [3]: 18.2 | A: 95 percentile grouping number score [1]: 4.5 | B: Mouse performance score [1]: 2.1 | C1: #A timing-sequence response peptide fragment set [1]: 352 | C2: #B vaccine specificity peptide fragment set [1]: 541 | C3: Intersection of A and B [1]: 1 | C4: Percentage of the intersection in set B [1]: 0.185 | C: Timing-sequence response and specificity score [1]: 0.5

RGGSYTNDKAC (SARS-CoV-2) [SEQ ID NO:2]
B1: D 0-D 14 95 percentile rise in the number of mice [1]: 3 | B2: D 0-D 21 95 percentile rise in the number of mice [1]: 3 | B3: D 14-D 21 95 percentile rise in the number of mice [1]: 2 | B4: D 21-D 28 95 percentile rise in the number of mice [1]: 0 | A1: difference between a highest median and a D 0 median (95 percentile) [2]: 0.14 | A2: whether the 95 percentile of the last sampling is increased compared with the end point [2]: N | Total single peptide [3]: 18.3 | A: 95 percentile grouping number score [1]: 4.5 | B: Mouse performance score [1]: 1.9 | C1: #A timing-sequence response peptide fragment set [1]: 288 | C2: #B vaccine specificity peptide fragment set [1]: 268 | C3: Intersection of A and B [1]: 4 | C4: Percentage of the intersection in set B [1]: 1.493 | C: Timing-sequence response and specificity score [1]: 1

RLFRKSNLK (SARS-CoV-2) [SEQ ID NO:35]
B1: D 0-D 14 95 percentile rise in the number of mice [1]: 3 | B2: D 0-D 21 95 percentile rise in the number of mice [1]: 3 | B3: D 14-D 21 95 percentile rise in the number of mice [1]: 2 | B4: D 21-D 28 95 percentile rise in the number of mice [1]: 0 | A1: difference between a highest median and a D 0 median (95 percentile) [2]: 0.10 | A2: whether the 95 percentile of the last sampling is increased compared with the end point [2]: N | Total single peptide [3]: 16.3 | A: 95 percentile grouping number score [1]: 4 | B: Mouse performance score [1]: 1.9 | C1: #A timing-sequence response peptide fragment set [1]: 352 | C2: #B vaccine specificity peptide fragment set [1]: 541 | C3: Intersection of A and B [1]: 1 | C4: Percentage of the intersection in set B [1]: 0.185 | C: Timing-sequence response and specificity score [1]: 0.5

SVYAWNRKR (SARS-CoV-2) [SEQ ID NO:3]
A2: whether the 95 percentile of the last sampling is increased compared with the end point (Embodiment II, Combination 1): N | B1: D 0-D 14 95 percentile rise in the number of mice (Embodiment II, Combination 1): 5 | B2: D 0-D 21 95 percentile rise in the number of mice (Embodiment II, Combination 1): 5 | B3: D 14-D 21 95 percentile rise in the number of mice (Embodiment II, Combination 1): 1 | B4: D 21-D 28 95 percentile rise in the number of mice (Embodiment II, Combination 1): 2 | Total single peptide (Embodiment II, Combination 1, A*3 + B*2 + C*1): 10.7 | A: 95 percentile grouping number score (Embodiment II, Combination 1): 1 | B: Mouse performance score (Embodiment II, Combination 1): 3.6 | A1: difference between a highest median and a D 0 median (95 percentile) (Embodiment II, mice immunized with Combination 1): 0.05 | B1: D 0-D 14 95 percentile rise in the number of mice [1]: 3 | B2: D 0-D 21 95 percentile rise in the number of mice [1]: 3 | B3: D 14-D 21 95 percentile rise in the number of mice [1]: 2 | B4: D 21-D 28 95 percentile rise in the number of mice [1]: 1 | A1: difference between a highest median and a D 0 median (95 percentile) [2]: 0.13 | A2: whether the 95 percentile of the last sampling is increased compared with the end point [2]: N | Total single peptide [3]: 18.7 | A: 95 percentile grouping number score [1]: 4.5 | B: Mouse performance score [1]: 2.1 | C1: #A timing-sequence response peptide fragment set [1]: 823 | C2: #B vaccine specificity peptide fragment set [1]: 398 | C3: Intersection of A and B [1]: 7 | C4: Percentage of the intersection in set B [1]: 1.759 | C: Timing-sequence response and specificity score [1]: 1 | 1) 95 percentile grouping number A [4]: 4 | 1) 95 percentile grouping number A1 [4]: 0.05 | 2) Mouse performance B [4]: 3.5 | 2) Mouse performance B1 [4]: 3 | 2) Mouse performance B2 [4]: 5 | 2) Mouse performance B3 [4]: 4 | 3) Timing-sequence response and specificity C [4]: 0 | 3) Timing-sequence response and specificity C1 [4]: 237 | 3) Timing-sequence response and specificity C2 [4]: 1244 | 3) Timing-sequence response and specificity C3 [4]: 0 | 3) Timing-sequence response and specificity C4 [4]: 0.000 | Total single peptide [4]: 19 | 1) 95 percentile grouping number A [5]: 3.5 | 1) 95 percentile grouping number A1 [5]: 0.05 | 2) Mouse performance B [5]: 3 | 2) Mouse performance B1 [5]: 4 | 2) Mouse performance B2 [5]: 5 | 2) Mouse performance B3 [5]: 2 | 3) Timing-sequence response and specificity C [5]: 0 | 3) Timing-sequence response and specificity C1 [5]: 203 | 3) Timing-sequence response and specificity C2 [5]: 1244 | 3) Timing-sequence response and specificity C3 [5]: 0 | 3) Timing-sequence response and specificity C4 [5]: 0.000 | Total single peptide [5]: 16.5 | 1) 95 percentile grouping number A [6]: 1 | 1) 95 percentile grouping number A1 [6]: 0.012 | 2) Mouse performance B [6]: 0.8 | 2) Mouse performance B1 [6]: 2 | 2) Mouse performance B2 [6]: 1 | 2) Mouse performance B3 [6]: 0 | 3) Timing-sequence response and specificity C [6]: 1 | 3) Timing-sequence response and specificity C1 [6]: 123 | 3) Timing-sequence response and specificity C2 [6]: 1244 | 3) Timing-sequence response and specificity C3 [6]: 2 | 3) Timing-sequence response and specificity C4 [6]: 0.161 | Total single peptide [6]: 5.1 | 1) 95 percentile grouping number A [7]: 5 | 1) 95 percentile grouping number A1 [7]: 0.09 | 2) Mouse performance B [7]: 2.7 | 2) Mouse performance B1 [7]: 5 | 2) Mouse performance B2 [7]: 4 | 2) Mouse performance B3 [7]: 1 | 3) Timing-sequence response and specificity C [7]: 1 | 3) Timing-sequence response and specificity C1 [7]: 100 | 3) Timing-sequence response and specificity C2 [7]: 1244 | 3) Timing-sequence response and specificity C3 [7]: 3 | 3) Timing-sequence response and specificity C4 [7]: 0.241 | Total single peptide [7]: 20.9 | 1) 95 percentile grouping number A [8]: 5 | 1) 95 percentile grouping number A1 [8]: 0.08 | 2) Mouse performance B [8]: 2.9 | 2) Mouse performance B1 [8]: 5 | 2) Mouse performance B2 [8]: 5 | 2) Mouse performance B3 [8]: 1 | 3) Timing-sequence response and specificity C [8]: 1 | 3) Timing-sequence response and specificity C1 [8]: 260 | 3) Timing-sequence response and specificity C2 [8]: 1244 | 3) Timing-sequence response and specificity C3 [8]: 3 | 3) Timing-sequence response and specificity C4 [8]: 0.241 | Total single peptide [8]: 21.3 | 1) 95 percentile grouping number A [9]: 3.5 | 1) 95 percentile grouping number A1 [9]: 0.05 | 2) Mouse performance B [9]: 2.9 | 2) Mouse performance B1 [9]: 5 | 2) Mouse performance B2 [9]: 5 | 2) Mouse performance B3 [9]: 1 | 3) Timing-sequence response and specificity C [9]: 0 | 3) Timing-sequence response and specificity C1 [9]: 153 | 3) Timing-sequence response and specificity C2 [9]: 1244 | 3) Timing-sequence response and specificity C3 [9]: 0 | 3) Timing-sequence response and specificity C4 [9]: 0.000 | Total single peptide [9]: 16.3

VNKGEDIQLLKS [SEQ ID NO:27]
B1: D 0-D 14 95 percentile rise in the number of mice [1]: 3 | B2: D 0-D 21 95 percentile rise in the number of mice [1]: 3 | B3: D 14-D 21 95 percentile rise in the number of mice [1]: 1 | B4: D 21-D 28 95 percentile rise in the number of mice [1]: 0 | A1: difference between a highest median and a D 0 median (95 percentile) [2]: 0.14 | A2: whether the 95 percentile of the last sampling is increased compared with the end point [2]: N | Total single peptide [3]: 17.4 | A: 95 percentile grouping number score [1]: 4.5 | B: Mouse performance score [1]: 1.7 | C1: #A timing-sequence response peptide fragment set [1]: 133 | C2: #B vaccine specificity peptide fragment set [1]: 431 | C3: Intersection of A and B [1]: 1 | C4: Percentage of the intersection in set B [1]: 0.232 | C: Timing-sequence response and specificity score [1]: 0.5

YEGNSPFH [SEQ ID NO:18]
B1: D 0-D 14 95 percentile rise in the number of mice [1]: 3 | B2: D 0-D 21 95 percentile rise in the number of mice [1]: 2 | B3: D 14-D 21 95 percentile rise in the number of mice [1]: 0 | B4: D 21-D 28 95 percentile rise in the number of mice [1]: 2 | A1: difference between a highest median and a D 0 median (95 percentile) [2]: 0.06 | A2: whether the 95 percentile of the last sampling is increased compared with the end point [2]: Y | Total single peptide [3]: 9.9 | A: 95 percentile grouping number score [1]: 2 | B: Mouse performance score [1]: 1.7 | C1: #A timing-sequence response peptide fragment set [1]: 1212 | C2: #B vaccine specificity peptide fragment set [1]: 389 | C3: Intersection of A and B [1]: 1 | C4: Percentage of the intersection in set B [1]: 0.257 | C: Timing-sequence response and specificity score [1]: 0.5
